Experiments:
Type in all cases: cell-based
Marburg virus (MARV) = assay: organism not typed; conditions: Vero, 72 h, read-out: Percent viral inhibition MARV
dengue virus (DENV) = assay: microbe, parasite or virus in culture; conditions: Dengue virus, Vero, 120 h, read-out: Percent viral inhibition DENY
[1] = tested on: Chikungunya virus (CHIKV); assay: microbe, parasite or virus in culture; conditions: Chikungunya virus, Vero, 48 h, read-out: Percent viral inhibition CHKV

SMILES	inhibition at 1 µM (Marburg virus (MARV))	inhibition at 1 µM (dengue virus (DENV))	inhibition at 1 µM [1]
CN1CCN(c2ccc(Oc3cc(CN4CCC(CC(=O)O)CC4)cc(-c4cc(Cl)cc(Cl)c4)n3)nn2)CC1 [Example 359, 2-(1-((2-(3,5-dichlorophenyl)-6-((6-(4-methylpiperazin-1-yl)pyridazin-3-yl)oxy)pyridin-4-yl)methyl)piperidin-4-yl)acetic acid]	62%	45.3%	28.9%
CN1CCN(c2ccc(Oc3cc(CN4CCC(CCO)CC4)cc(-c4cc(Cl)cc(Cl)c4)n3)nn2)CC1 [Example 360, 2-(1-((2-(3,5-dichlorophenyl)-6-((6-(4-methylpiperazin-1-yl)pyridazin-3-yl)oxy)pyridin-4-yl)methyl)piperidin-4-yl)ethanol]	3.44%	2.83%	0%
CN1CCN(c2ccc(Oc3cc(CN4CC[C@@H]5[C@H](CC4)[C@H]5C(=O)O)cc(-c4cc(Cl)cc(Cl)c4)n3)nn2)CC1 [Example 361, (1R,7S,8r)-4-((2-(3,5-dichlorophenyl)-6-((6-(4-methylpiperazin-1-yl)pyridazin-3-yl)oxy)pyridin-4-yl)methyl)-4-azabicyclo[5.1.0]octane-8-carboxylic acid]	42%	12.1%	26.6%
CN1CCCN(c2ccc(Oc3cc(CN4CC[C@@H]5[C@H](CC4)[C@H]5C(=O)O)cc(-c4cc(Cl)cc(Cl)c4)n3)nn2)CC1 [Example 362, (1R,7S,8r)-4-((2-(3,5-dichlorophenyl)-6-((6-(4-methyl-1,4-diazepan-1-yl)pyridazin-3-yl)oxy)pyridin-4-yl)methyl)-4-azabicyclo[5.1.0]octane-8-carboxylic acid]	50.9%	50.2%	14.9%
CC(=O)NCC1CCN(Cc2cc(Oc3ccc(N4CCN(CC(C)C(=O)O)CC4)nn3)nc(-c3cc(Cl)cc(Cl)c3)c2)CC1 (stereo not drawn) [Example 363, 3-(4-(6-((4-((4-(acetamidomethyl)piperidin-1-yl)methyl)-6-(3,5-dichlorophenyl)pyridin-2-yl)oxy)pyridazin-3-yl)piperazin-1-yl)-2-methylpropanoic acid]	2.8%	0%	0%
C[C@H](CC1CCN(Cc2cc(Oc3ccc(N4CCN(C)CC4)nn3)nc(-c3cc(Cl)cc(Cl)c3)c2)CC1)C(=O)O [Example 364, (R)-3-(1-((2-(3,5-dichlorophenyl)-6-((6-(4-methylpiperazin-1-yl)pyridazin-3-yl)oxy)pyridin-4-yl)methyl)piperidin-4-yl)-2-methylpropanoic acid]	47.6%	40%	31.4%
C[C@@H](CC1CCN(Cc2cc(Oc3ccc(N4CCN(C)CC4)nn3)nc(-c3cc(Cl)cc(Cl)c3)c2)CC1)C(=O)O [Example 365, (S)-3-(1-((2-(3,5-dichlorophenyl)-6-((6-(4-methylpiperazin-1-yl)pyridazin-3-yl)oxy)pyridin-4-yl)methyl)piperidin-4-yl)-2-methylpropanoic acid]	17.4%	32.4%	0%
CCN1C[C@@H]2C[C@H]1CN2c1ccc(Oc2cc(CN3CCC(CC(=O)O)CC3)cc(-c3cc(Cl)cc(Cl)c3)n2)nn1 [Example 366, 2-(1-((2-(3,5-dichlorophenyl)-6-((6-((1S,4S)-5-ethyl-2,5-diazabicyclo[2.2.1]heptan-2-yl)pyridazin-3-yl)oxy)pyridin-4-yl)methyl)piperidin-4-yl)acetic acid]	23.1%	48.5%	6.17%
CC(=O)N[C@H]1[C@@H]2CCN(Cc3cc(Oc4cnc(N5CCN(CCC(=O)O)CC5)nc4)nc(-c4cc(Cl)cc(Cl)c4)c3)CC[C@@H]21 [Example 367, 3-(4-(5-((4-(((1R,7S,8r)-8-acetamido-4-azabicyclo[5.1.0]octan-4-yl)methyl)-6-(3,5-dichlorophenyl)pyridin-2-yl)oxy)pyrimidin-2-yl)piperazin-1-yl)propanoic acid]	54.7%	15%	27.4%
COC(=O)C(C)CCN1CCN(c2ncc(Oc3cc(CN4CCC(CNC(C)=O)CC4)cc(-c4cc(Cl)cc(Cl)c4)n3)cn2)CC1 (stereo not drawn) [Example 368, methyl4-(4-(5-((4-((4-(acetamidomethyl)piperidin-1-yl)methyl)-6-(3,5-dichlorophenyl)pyridin-2-yl)oxy)pyrimidin-2-yl)piperazin-1-yl)-2-methylbutanoate]	65.4%	65.8%	32.5%
CC(=O)NCC1CCN(Cc2cc(Oc3cnc(N4CCN(CCC(C)(C)C(=O)O)CC4)nc3)nc(-c3cc(Cl)cc(Cl)c3)c2)CC1 [Example 370, 4-(4-(5-((4-((4-(acetamidomethyl)piperidin-1-yl)methyl)-6-(3,5-dichlorophenyl)pyridin-2-yl)oxy)pyrimidin-2-yl)piperazin-1-yl)-2,2-dimethylbutanoic acid]	57%	41.7%	24.6%
CC(=O)NCC1CCN(Cc2cc(Oc3cnc(N4CCN(C(C)CCS(C)(=O)=O)CC4)nc3)nc(-c3cc(F)cc(Cl)c3)c2)CC1 (stereo not drawn) [Example 372, N-((1-((2-(3-chloro-5-fluorophenyl)-6-((2-(4-(4-(methylsulfonyl)butan-2-yl)piperazin-1-yl)pyrimidin-5-yl)oxy)pyridin-4-yl)methyl)piperidin-4-yl)methyl)acetamide]	45.3%	81.8%	18.2%
CNC(=O)NCC1CCN(Cc2cc(Oc3cnc(N4CCN(C(C)CCS(C)(=O)=O)CC4)nc3)nc(-c3cc(F)cc(Cl)c3)c2)CC1 (stereo not drawn) [Example 373, 1-((1-((2-(3-chloro-5-fluorophenyl)-6-((2-(4-(4-(methylsulfonyl)butan-2-yl)piperazin-1-yl)pyrimidin-5-yl)oxy)pyridin-4-yl)methyl)piperidin-4-yl)methyl)-3-methylurea]	67.8%	53.4%	28.8%
CN1CCCN(c2ncc(Oc3cc(CN4CCC(CC(=O)O)CC4)cc(-c4cc(F)cc(Cl)c4)n3)cn2)CC1 [Example 374, 2-(1-((2-(3-chloro-5-fluorophenyl)-6-((2-(4-methyl-1,4-diazepan-1-yl)pyrimidin-5-yl)oxy)pyridin-4-yl)methyl)piperidin-4-yl)acetic acid]	48.6%	38.5%	17.6%
CN1CCN(c2ncc(Oc3cc(-c4cc(Cl)cc(Cl)c4)cc(CN4CCC(CC(=O)O)CC4)c3F)cn2)CC1 [Example 376, 2-(1-((3′,5′-dichloro-4-fluoro-5-((2-(4-methylpiperazin-1-yl)pyrimidin-5-yl)oxy)-[1,1′-biphenyl]-3-yl)methyl)piperidin-4-yl)acetic acid]	12.7%	0%	13.5%
CN1CCN(c2ncc(Oc3nc(-c4cc(Cl)cc(Cl)c4)cc(CN4CCC(CC(=O)O)CC4)c3F)cn2)CC1 [Example 379, 2-(1-((6-(3,5-dichlorophenyl)-3-fluoro-2-((2-(4-methylpiperazin-1-yl)pyrimidin-5-yl)oxy)pyridin-4-yl)methyl)piperidin-4-yl)acetic acid]	51.2%	35.2%	41.5%
